In one assay the target is T1, Cbl-b (Homo sapiens, UniProt Q13191).
T1 construct: biotin (biotinylated)
Description: Cbl-b probe displacement HTRF binding assay. The note with it: 0.4 nM biotinylated Cbl-b, 150 nM BODIPY probe. A digest of the protocol:
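Biotinylated Cbl-b (0.4 nM) preincubated 60 min at RT with compound (20-point 1:2 series, 10 μM top), then 150 nM BODIPY probe for 15 min, then streptavidin-terbium detection. Buffer: 20 mM Hepes, 150 mM NaCl, 0.01% Triton X-100, 0.5 mM TCEP, 0.01% BSA. Loss of HTRF signal gave IC50 via four-parameter fit.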
A general note: Time-resolved FRET reads energy transfer from a long-lived donor to a nearby acceptor.

Another assay has as its system Jurkat cells. Description: IL-2 secretion assay in CD3/CD28-activated Jurkat cells (AlphaLISA). Format: cell-based, human. To be noted: Homo sapiens, CD3/CD28 T Cell Activator, 24 h, IL-2 AlphaLISA. A digest of the protocol: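 Jurkat cells (50,000/well) preincubated 1 h at 37° C with compound (16-point 1:2 series, final 10 μM to 300 pM) in Opti-MEM, then stimulated with CD3/CD28 activator for 24 h. Supernatant IL-2 read by AlphaLISA; EC50 from 4-parameter logistic fit.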
A general note: In Alpha technology, singlet oxygen from a donor bead excites a nearby acceptor bead.

Structures are written as SMILES.

T1 sequence (Q13191 whole entry, species assumed): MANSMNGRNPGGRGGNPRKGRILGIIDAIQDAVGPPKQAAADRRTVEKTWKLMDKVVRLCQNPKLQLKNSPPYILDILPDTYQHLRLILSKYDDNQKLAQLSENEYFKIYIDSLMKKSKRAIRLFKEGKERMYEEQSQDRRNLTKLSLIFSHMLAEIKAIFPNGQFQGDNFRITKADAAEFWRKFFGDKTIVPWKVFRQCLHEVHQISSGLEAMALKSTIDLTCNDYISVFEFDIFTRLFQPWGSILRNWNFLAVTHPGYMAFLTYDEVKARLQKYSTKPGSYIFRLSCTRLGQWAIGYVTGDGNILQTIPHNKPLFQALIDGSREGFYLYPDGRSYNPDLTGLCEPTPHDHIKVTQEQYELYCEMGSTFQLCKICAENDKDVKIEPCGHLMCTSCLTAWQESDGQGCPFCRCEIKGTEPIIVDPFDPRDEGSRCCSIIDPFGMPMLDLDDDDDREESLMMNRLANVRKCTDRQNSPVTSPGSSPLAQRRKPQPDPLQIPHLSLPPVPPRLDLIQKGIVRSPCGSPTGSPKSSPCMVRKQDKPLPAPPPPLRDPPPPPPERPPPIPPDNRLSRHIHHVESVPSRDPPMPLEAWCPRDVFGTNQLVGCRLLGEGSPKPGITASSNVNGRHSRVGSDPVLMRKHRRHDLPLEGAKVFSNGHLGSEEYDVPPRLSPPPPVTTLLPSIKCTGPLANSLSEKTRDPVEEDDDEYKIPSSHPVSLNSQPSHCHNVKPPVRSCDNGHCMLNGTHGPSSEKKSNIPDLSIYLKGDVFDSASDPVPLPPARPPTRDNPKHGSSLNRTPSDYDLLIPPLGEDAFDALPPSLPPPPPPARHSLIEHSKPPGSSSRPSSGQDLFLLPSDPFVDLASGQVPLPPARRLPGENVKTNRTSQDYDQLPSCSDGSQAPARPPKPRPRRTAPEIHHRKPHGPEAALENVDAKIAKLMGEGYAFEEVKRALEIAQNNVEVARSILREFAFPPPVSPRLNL

What is called IC50 is the concentration needed to halve the response being measured. In general, EC50 refers to the midpoint of the concentration-response curve. Read a high EC50 as a less potent agent. For the molecule `Cn1cc(C#N)nc1-c1cc(F)ccc1-c1cc(C2CC2)nc(-n2cnc3cc(CNCCC(F)(F)F)[nH]c3c2=O)c1` [Example 112, 2-[2-[2-cyclopropyl-6-[4-oxo-6-[(3,3,3-trifluoropropylamino)methyl]-5H-pyrrolo[3,2-d]pyrimidin-3-yl]pyridin-4-yl]-5-fluorophenyl]-1-methylimidazole-4-carbonitrile], the IC50 on Cbl-b was < 100 nM. In addition, the concentration for a half-maximal effect (EC50) with Jurkat cells was < 100 nM.

Take `COCCN(Cc1cc2ncn(-c3cc(-c4ccc(F)cc4-c4nncn4C)cc(C4CC4)n3)c(=O)c2[nH]1)CC(F)(F)F` [Example 35, 6-{6-cyclopropyl-4-[4-fluoro-2-(4-methyl-4H-1,2,4-triazol-3-yl)phenyl]-2-pyridyl}-2-{[(2-methoxyethyl)(2,2,2-trifluoroethyl)amino]methyl}-1,6-dihydro-1,4,6-triaza-7-indenone]: the IC50 at Cbl-b was < 100 nM. In addition, the EC50 in the assay on Jurkat cells was 100 to 1000 nM.

Regarding `Cc1ccnnc1-c1cc(C#N)ccc1-c1cc(C2CC2)nc(-n2cc(C3CC3)c3cc(CNC4(C)CCC4)[nH]c3c2=O)c1` [Example 75, 4-[2-Cyclopropyl-6-[4-cyclopropyl-2-[[(1-methylcyclobutyl)amino]methyl]-7-oxo-1H-pyrrolo[2,3-c]pyridin-6-yl]pyridin-4-yl]-3-(4-methylpyridazin-3-yl)benzonitrile], the IC50 on Cbl-b is < 100 nM. Besides, the EC50 in the assay on Jurkat cells is < 100 nM.

For the molecule `C[C@H]1CCCN(Cc2cc3c(C4CC4)cn(-c4cc(-c5c(-c6nncn6C)cnn5C)cc(Cl)n4)c(=O)c3[nH]2)C1` [Example 25, 2-{[(S)-3-Methyl-1-piperidyl]methyl}-6-{6-chloro-4-[1-methyl-4-(4-methyl-4H-1,2,4-triazol-3-yl)-5-pyrazolyl]-2-pyridyl}-4-cyclopropyl-1,6-dihydro-1,6-diaza-7-indenone], the IC50 on Cbl-b was < 100 nM. In addition, the half-maximal effective concentration (EC50) in the assay with Jurkat cells is < 100 nM.

Take `Cn1cnnc1-c1cc(F)ccc1-c1cc(C2CC2)nc(-n2cc(C#N)c3c4c([nH]c3c2=O)CCCC4)c1` [Example 144, 2-{6-Cyclopropyl-4-[4-fluoro-2-(4-methyl-4H-1,2,4-triazol-3-yl)phenyl]-2-pyridyl}-1-oxo-2,5,6,7,8,9-hexahydroβ-carboline-4-carbonitrile]: the IC50 at Cbl-b was < 100 nM. The EC50 in the assay on Jurkat cells was < 100 nM.

With `CC1(NCc2cc3ncn(-c4cc(-c5ccc(F)cc5-n5nccc5C(F)(F)F)cc(C5CC5)n4)c(=O)c3[nH]2)CCC1` [Example 105, 3-[6-cyclopropyl-4-[4-fluoro-2-[5-(trifluoromethyl)pyrazol-1-yl]phenyl]pyridin-2-yl]-6-[[(1-methylcyclobutyl)amino]methyl]-5H-pyrrolo[3,2-d]pyrimidin-4-one], the IC50 at Cbl-b was < 100 nM. Besides, the EC50 in the assay with Jurkat cells was 100 to 1000 nM.

Turning to `Cn1cnnc1-c1cc(C#N)ccc1-c1cc(C2CC2)nc(-n2cc(C3CC3)c3cc(CNC4(C)CCC4)[nH]c3c2=O)c1` [Example 37, 4-(6-cyclopropyl-2-{4-cyclopropyl-2-[(1-methylcyclobutylamino)methyl]-7-oxo-1,6-dihydro-1,6-diaza-6-indenyl}-4-pyridyl)-3-(4-methyl-4H-1,2,4-triazol-3-yl)benzonitrile], the IC50 at Cbl-b was < 100 nM. Moreover, the half-maximal effective concentration (EC50) with Jurkat cells is < 100 nM.

Take `Cn1ccnc1-c1cc(F)ccc1-c1cc(C2CC2)nc(-n2cc(C3CC3)c3cc(CNC(C)(C)C)[nH]c3c2=O)c1` [Example 62, 2-[(tert-butylamino)methyl]-4-cyclopropyl-6-{6-cyclopropyl-4-[4-fluoro-2-(1-methyl-2-imidazolyl)phenyl]-2-pyridyl}-1,6-dihydro-1,6-diaza-7-indenone]: the IC50 on Cbl-b is < 100 nM. The concentration giving a half-maximal response (EC50) in the assay on Jurkat cells was < 100 nM.

Regarding `C[C@H]1CCCN(Cc2nc3c(C(F)(F)F)cn(-c4cc(-c5ccc(F)cc5-c5nncn5C)cc(C5CC5)n4)c(=O)c3[nH]2)C1` [Example 50, 5-[6-cyclopropyl-4-[4-fluoro-2-(4-methyl-1,2,4-triazol-3-yl)phenyl]pyridin-2-yl]-2-[[(3S)-3-methylpiperidin-1-yl]methyl]-7-(trifluoromethyl)-3H-imidazo[4,5-c]pyridin-4-one], the IC50 on Cbl-b is < 100 nM. In the assay on Jurkat cells, the EC50 is < 100 nM.

With `Cc1cncnc1-c1cc(F)ccc1-c1cc(C2CC2)nc(N2Cc3ccc(CN4CCC[C@H](C)C4)cc3C2=O)c1` [Example 143, 2-[6-Cyclopropyl-4-[4-fluoro-2-(5-methylpyrimidin-4-yl)phenyl]pyridin-2-yl]-6-[[(3S)-3-methylpiperidin-1-yl]methyl]-3H-isoindol-1-one], the concentration for half-maximal inhibition (IC50) at Cbl-b was < 100 nM. The molecule also came in with a half-maximal effective concentration (EC50) with Jurkat cells of 1000 to 5000 nM.

With `COCCNCc1cc2c(C(F)(F)F)cn(-c3cc(-c4ccc(F)cc4-n4cc(C)nn4)cc(C4CC4)n3)c(=O)c2[nH]1` [Example 131, 6-[6-cyclopropyl-4-[4-fluoro-2-(4-methyltriazol-1-yl)phenyl]pyridin-2-yl]-2-[(2-methoxyethylamino)methyl]-4-(trifluoromethyl)-1H-pyrrolo[2,3-c]pyridin-7-one], the concentration for half-maximal inhibition (IC50) at Cbl-b is < 100 nM. For the same molecule, in the assay on Jurkat cells, the concentration giving a half-maximal response (EC50) is < 100 nM.

With `N#Cc1c[nH]c2c(=O)n(-c3cc(-c4ccc(F)cc4-c4nncn4C(F)F)cc(C4CC4)n3)cc(C(F)(F)F)c12` [Example 134, 6-[6-cyclopropyl-4-[2-[4-(difluoromethyl)-1,2,4-triazol-3-yl]-4-fluorophenyl]pyridin-2-yl]-7-oxo-4-(trifluoromethyl)-1H-pyrrolo[2,3-c]pyridine-3-carbonitrile], the concentration for half-maximal inhibition (IC50) at Cbl-b was < 100 nM. Moreover, the EC50 in the assay on Jurkat cells was < 100 nM.

For `Cc1cccc(C(O)c2cc3c(C#N)cn(-c4cc(-c5ccc(F)cc5-c5nncn5C)cc(C5CC5)n4)c(=O)c3[nH]2)n1` (stereo not drawn) [Example 93, 6-{6-cyclopropyl-4-[4-fluoro-2-(4-methyl-4H-1,2,4-triazol-3-yl)phenyl]-2-pyridyl}-2-[hydroxy(6-methyl-2-pyridyl)methyl]-7-oxo-1,6-dihydro-1,6-diaza-4-indenecarbonitrile], the IC50 on Cbl-b was < 100 nM. The concentration for a half-maximal effect (EC50) in the assay on Jurkat cells was < 100 nM.

As for `COc1ccc(-c2cc(C3CC3)nc(-n3cc(C4CC4)c4cc(CN5CCC[C@H](C)C5)[nH]c4c3=O)c2)c(-c2nncn2C)c1` [Example 5, 2-{[(S)-3-Methyl-1-piperidyl]methyl}-4-cyclopropyl-6-{6-cyclopropyl-4-[4-methoxy-2-(4-methyl-4H-1,2,4-triazol-3-yl)phenyl]-2-pyridyl}-1,6-dihydro-1,6-diaza-7-indenone], the IC50 at Cbl-b is < 100 nM. Moreover, the concentration for a half-maximal effect (EC50) in the assay with Jurkat cells was < 100 nM.

`CCNc1cc(-c2ccc(F)cc2-c2nncn2C)cc(-n2cc(C3CC3)c3cc(CN4CCC[C@H](C)C4)[nH]c3c2=O)n1` [Example 11, 2-{[(S)-3-methyl-1-piperidyl]methyl}-4-cyclopropyl-6-{6-(ethylamino)-4-[4-fluoro-2-(4-methyl-4H-1,2,4-triazol-3-yl)phenyl]-2-pyridyl}-1,6-dihydro-1,6-diaza-7-indenone]: the IC50 on Cbl-b is < 100 nM. Further, the EC50 with Jurkat cells was < 100 nM.

In the case of `C[C@H]1CCCN(Cc2cc3c(C4CC4)cn(-c4cc(-c5ccc(F)cc5-c5ncnn5C)cc(C5CC5)n4)c(=O)c3[nH]2)C1` [Example 119, 4-Cyclopropyl-6-[6-cyclopropyl-4-[4-fluoro-2-(2-methyl-1,2,4-triazol-3-yl)phenyl]pyridin-2-yl]-2-[[(3S)-3-methylpiperidin-1-yl]methyl]-1H-pyrrolo[2,3-c]pyridin-7-one], the IC50 on Cbl-b is < 100 nM. The EC50 with Jurkat cells is 100 to 1000 nM.

With `COCCNCc1cc2ncn(-c3cc(-c4ccc(F)cc4-c4nc(C#N)cn4C)cc(C4CC4)n3)c(=O)c2[nH]1` [Example 107, 2-[2-[2-cyclopropyl-6-[6-[(2-methoxyethylamino)methyl]-4-oxo-5H-pyrrolo[3,2-d]pyrimidin-3-yl]pyridin-4-yl]-5-fluorophenyl]-1-methylimidazole-4-carbonitrile], the IC50 at Cbl-b was < 100 nM. Besides, the concentration giving a half-maximal response (EC50) with Jurkat cells is < 100 nM.

As for `Cn1cnnc1-c1cc(F)ccc1-c1cc(C2CC2)nc(-n2cc(C(F)(F)F)c3nc(CC4CCC4)[nH]c3c2=O)c1` [Example 42, 2-(Cyclobutylmethyl)-5-{6-cyclopropyl-4-[4-fluoro-2-(4-methyl-4H-1,2,4-triazol-3-yl)phenyl]-2-pyridyl}-7-(trifluoromethyl)-3,5-dihydro-1,3,5-triaza-4-indenone], the IC50 on Cbl-b was < 100 nM. The half-maximal effective concentration (EC50) in the assay on Jurkat cells is < 100 nM.

`COCCNCc1cc2ncn(-c3cc(-c4ccc(F)cc4-c4nncn4C)cc(C4CC4)n3)c(=O)c2[nH]1` [Example 28, 3-[6-cyclopropyl-4-[4-fluoro-2-(4-methyl-1,2,4-triazol-3-yl)phenyl]pyridin-2-yl]-6-[(2-methoxyethylamino)methyl]-5H-pyrrolo[3,2-d]pyrimidin-4-one]: the half-inhibitory concentration (IC50) at Cbl-b is < 100 nM. Moreover, the EC50 in the assay with Jurkat cells is < 100 nM.

Turning to `C[C@H]1CCCN(Cc2cc3c(C4CC4)cn(-c4cc(-c5ccc(F)cc5-c5nncn5C)ccn4)c(=O)c3[nH]2)C1` [Example 12, 2-{[(S)-3-Methyl-1-piperidyl]methyl}-4-cyclopropyl-6-{4-[4-fluoro-2-(4-methyl-4H-1,2,4-triazol-3-yl)phenyl]-2-pyridyl}-1,6-dihydro-1,6-diaza-7-indenone], the IC50 at Cbl-b was < 100 nM. This molecule also returned an EC50 in the assay with Jurkat cells of 100 to 1000 nM.

As to `C[C@H]1CCCN(Cc2cc3c(S(C)(=O)=O)cn(-c4cc(-c5ccc(C#N)cc5-c5nccn5C)cc(C5CC5)n4)c(=O)c3[nH]2)C1` [Example 99, 4-[2-(2-{[(S)-3-methyl-1-piperidyl]methyl}-4-mesyl-7-oxo-1,6-dihydro-1,6-diaza-6-indenyl)-6-cyclopropyl-4-pyridyl]-3-(1-methyl-2-imidazolyl)benzonitrile], the half-inhibitory concentration (IC50) at Cbl-b is < 100 nM. Also, the concentration giving a half-maximal response (EC50) with Jurkat cells is < 100 nM.

(Values after patent US20250011318A1 (ARCUS BIOSCIENCES, INC., priority 2023, published 2025).)
